# Data published in PMC10367113 (Nature chemical biology, 2022).
# Assays:
# Format in all cases: biochemical
# Bl_Glc31 = Bl_Glc31 (Bifidobacterium longum, UniProt Q8G4P4); assay: LC-MS; conditions: product Man9GlcNAc
# Bl_Endo85 = biological target: T1, Bl_Endo85 (Bifidobacterium longum, UniProt Q8G4P3); assay: LC-MS; conditions: 150 mM ammonium acetate pH 5.0, 37 °C, 16 h; product Man9GlcNAc
# T1 sequence (Q8G4P3 38-937): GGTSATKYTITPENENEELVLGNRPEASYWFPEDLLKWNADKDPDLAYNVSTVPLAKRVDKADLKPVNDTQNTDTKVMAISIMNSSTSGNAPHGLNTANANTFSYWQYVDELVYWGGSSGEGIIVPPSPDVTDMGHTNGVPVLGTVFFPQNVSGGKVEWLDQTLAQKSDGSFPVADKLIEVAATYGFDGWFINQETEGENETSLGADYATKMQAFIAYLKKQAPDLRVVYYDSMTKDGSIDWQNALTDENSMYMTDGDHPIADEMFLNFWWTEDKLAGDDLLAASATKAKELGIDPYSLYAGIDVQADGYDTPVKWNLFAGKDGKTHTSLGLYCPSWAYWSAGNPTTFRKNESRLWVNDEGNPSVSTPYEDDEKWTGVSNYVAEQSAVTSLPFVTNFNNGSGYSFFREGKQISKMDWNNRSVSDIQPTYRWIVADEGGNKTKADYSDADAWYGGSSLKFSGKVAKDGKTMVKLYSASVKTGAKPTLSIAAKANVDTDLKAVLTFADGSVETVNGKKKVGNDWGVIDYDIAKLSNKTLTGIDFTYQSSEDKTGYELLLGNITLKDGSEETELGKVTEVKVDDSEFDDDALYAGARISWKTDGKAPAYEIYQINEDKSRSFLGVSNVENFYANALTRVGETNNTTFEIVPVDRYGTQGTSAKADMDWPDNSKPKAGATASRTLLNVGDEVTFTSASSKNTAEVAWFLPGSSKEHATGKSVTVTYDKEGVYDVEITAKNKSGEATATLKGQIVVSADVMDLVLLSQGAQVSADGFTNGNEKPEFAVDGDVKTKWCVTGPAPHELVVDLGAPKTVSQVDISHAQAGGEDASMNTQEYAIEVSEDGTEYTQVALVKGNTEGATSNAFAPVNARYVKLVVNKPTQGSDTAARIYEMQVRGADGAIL
# Bl_Man38C = biological target: T2, Bl_Man38C (Bifidobacterium longum, UniProt Q8G4P9); assay: LC-MS hydrolysis kinetics; conditions: pH 5.5, 37 °C, 0.1 mM CoCl2
# T2 sequence (Q8G4P9 1-1034): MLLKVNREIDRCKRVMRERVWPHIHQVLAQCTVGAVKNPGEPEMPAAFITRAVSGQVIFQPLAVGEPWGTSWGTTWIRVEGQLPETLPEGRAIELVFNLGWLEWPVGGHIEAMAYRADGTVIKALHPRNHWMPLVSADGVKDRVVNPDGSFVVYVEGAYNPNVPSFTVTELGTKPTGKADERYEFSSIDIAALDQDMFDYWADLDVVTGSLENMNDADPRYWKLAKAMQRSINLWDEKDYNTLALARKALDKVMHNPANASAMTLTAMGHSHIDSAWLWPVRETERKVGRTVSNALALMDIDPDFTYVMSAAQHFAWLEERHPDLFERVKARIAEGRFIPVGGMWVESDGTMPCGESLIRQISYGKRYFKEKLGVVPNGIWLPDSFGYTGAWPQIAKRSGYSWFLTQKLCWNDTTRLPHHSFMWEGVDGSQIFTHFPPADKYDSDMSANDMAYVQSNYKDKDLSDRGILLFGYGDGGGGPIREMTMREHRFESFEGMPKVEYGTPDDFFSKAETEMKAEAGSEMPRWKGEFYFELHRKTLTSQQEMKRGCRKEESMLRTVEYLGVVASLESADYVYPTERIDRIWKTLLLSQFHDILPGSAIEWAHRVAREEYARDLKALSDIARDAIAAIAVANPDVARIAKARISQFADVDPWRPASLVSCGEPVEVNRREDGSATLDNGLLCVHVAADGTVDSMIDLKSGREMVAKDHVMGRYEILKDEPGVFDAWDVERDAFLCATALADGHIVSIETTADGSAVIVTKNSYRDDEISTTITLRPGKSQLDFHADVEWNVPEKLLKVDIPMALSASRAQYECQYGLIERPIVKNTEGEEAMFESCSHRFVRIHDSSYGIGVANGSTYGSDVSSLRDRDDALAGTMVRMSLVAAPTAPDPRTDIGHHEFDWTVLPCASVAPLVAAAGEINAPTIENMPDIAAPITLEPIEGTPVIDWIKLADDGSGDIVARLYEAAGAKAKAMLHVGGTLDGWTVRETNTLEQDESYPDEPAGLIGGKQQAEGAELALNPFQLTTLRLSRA
# Bl_Man38B = biological target: T3, Bl_Man38B (Bifidobacterium longum, UniProt Q8G4Q0); assay: LC-MS hydrolysis kinetics; conditions: pH 5.5, 37 °C, 0.1 mM CoCl2
# T3 sequence (Q8G4Q0 1-1046): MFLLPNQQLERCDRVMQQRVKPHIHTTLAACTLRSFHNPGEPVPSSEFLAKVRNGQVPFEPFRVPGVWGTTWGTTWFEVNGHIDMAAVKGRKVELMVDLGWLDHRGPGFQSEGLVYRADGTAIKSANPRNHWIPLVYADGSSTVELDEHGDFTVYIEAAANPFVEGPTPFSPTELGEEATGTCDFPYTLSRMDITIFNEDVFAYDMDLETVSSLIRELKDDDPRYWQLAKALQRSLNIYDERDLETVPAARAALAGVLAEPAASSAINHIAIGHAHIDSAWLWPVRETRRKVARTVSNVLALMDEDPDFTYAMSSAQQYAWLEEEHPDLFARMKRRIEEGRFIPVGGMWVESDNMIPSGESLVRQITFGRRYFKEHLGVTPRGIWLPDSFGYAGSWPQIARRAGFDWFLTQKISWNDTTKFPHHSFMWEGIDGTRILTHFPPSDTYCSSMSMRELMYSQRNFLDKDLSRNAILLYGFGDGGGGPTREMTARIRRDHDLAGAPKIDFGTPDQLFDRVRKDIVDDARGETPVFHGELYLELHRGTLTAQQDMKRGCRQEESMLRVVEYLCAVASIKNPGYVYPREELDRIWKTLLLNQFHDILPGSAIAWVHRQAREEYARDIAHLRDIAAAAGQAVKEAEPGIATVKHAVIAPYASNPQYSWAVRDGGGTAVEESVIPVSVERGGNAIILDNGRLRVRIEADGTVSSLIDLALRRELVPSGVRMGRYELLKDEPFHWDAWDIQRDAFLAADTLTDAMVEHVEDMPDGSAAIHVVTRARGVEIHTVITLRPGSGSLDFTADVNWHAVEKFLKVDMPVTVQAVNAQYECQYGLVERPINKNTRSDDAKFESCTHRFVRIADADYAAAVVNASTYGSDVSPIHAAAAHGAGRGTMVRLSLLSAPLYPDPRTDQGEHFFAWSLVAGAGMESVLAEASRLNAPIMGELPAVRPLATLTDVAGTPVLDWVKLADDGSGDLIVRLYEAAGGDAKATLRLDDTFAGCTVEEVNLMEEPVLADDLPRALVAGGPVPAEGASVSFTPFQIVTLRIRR
# Bl_Man125 = biological target: T4, Bl_Man125 (Bifidobacterium longum, UniProt Q8G4P0); assay: LC-MS hydrolysis kinetics; conditions: pH 5.5, 37 °C
# T4 sequence (Q8G4P0 1-432): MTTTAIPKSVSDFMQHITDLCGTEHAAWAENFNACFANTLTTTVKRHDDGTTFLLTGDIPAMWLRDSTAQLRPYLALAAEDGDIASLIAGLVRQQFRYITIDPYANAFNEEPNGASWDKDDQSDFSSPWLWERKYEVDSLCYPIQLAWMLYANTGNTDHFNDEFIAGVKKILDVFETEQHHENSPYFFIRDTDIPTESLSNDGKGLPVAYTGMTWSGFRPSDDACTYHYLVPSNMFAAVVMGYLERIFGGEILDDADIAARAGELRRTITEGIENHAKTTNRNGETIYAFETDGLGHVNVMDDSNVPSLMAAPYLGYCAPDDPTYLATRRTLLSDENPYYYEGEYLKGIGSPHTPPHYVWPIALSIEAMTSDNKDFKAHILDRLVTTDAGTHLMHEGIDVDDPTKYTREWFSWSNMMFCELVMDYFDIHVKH
compound,measurement,setting,value
CC(=O)N[C@H]1C(O)O[C@H](CO)[C@@H](O[C@@H]2O[C@H](CO[C@H]3O[C@H](CO[C@H]4O[C@H](CO)[C@@H](O)[C@H](O)[C@@H]4O[C@H]4O[C@H](CO)[C@@H](O)[C@H](O)[C@@H]4O)[C@@H](O)[C@H](O[C@H]4O[C@H](CO)[C@@H](O)[C@H](O)[C@@H]4O[C@H]4O[C@H](CO)[C@@H](O)[C@H](O)[C@@H]4O)[C@@H]3O)[C@@H](O)[C@H](O[C@H]3O[C@H](CO)[C@@H](O)[C@H](O)[C@@H]3O[C@H]3O[C@H](CO)[C@@H](O)[C@H](O)[C@@H]3O[C@H]3O[C@H](CO)[C@@H](O)[C@H](O[C@H]4O[C@H](CO)[C@@H](O)[C@H](O)[C@H]4O)[C@@H]3O)[C@@H]2O)[C@@H]1O (some centres unmarked) [GlcMan9GlcNAc],LC-MS,Bl_Glc31,"Bl_Glc31 can specifically cleave GlcMan9GlcNAc, generating only Man9GlcNAc"
CC(=O)N[C@@H]1[C@@H](O)[C@H](O[C@@H]2O[C@H](CO)[C@@H](O[C@@H]3O[C@H](CO[C@H]4O[C@H](CO[C@H]5O[C@H](CO)[C@@H](O)[C@H](O)[C@@H]5O[C@H]5O[C@H](CO)[C@@H](O)[C@H](O)[C@@H]5O)[C@@H](O)[C@H](O[C@H]5O[C@H](CO)[C@@H](O)[C@H](O)[C@@H]5O[C@H]5O[C@H](CO)[C@@H](O)[C@H](O)[C@@H]5O)[C@@H]4O)[C@@H](O)[C@H](O[C@H]4O[C@H](CO)[C@@H](O)[C@H](O)[C@@H]4O[C@H]4O[C@H](CO)[C@@H](O)[C@H](O)[C@@H]4O[C@H]4O[C@H](CO)[C@@H](O)[C@H](O)[C@@H]4O)[C@@H]3O)[C@H](O)[C@H]2NC(C)=O)[C@@H](CO)O[C@H]1NC(=O)C[C@H](N)C(=O)O [Man9GlcNAc2-Asn],LC-MS,Bl_Endo85,Reactions of Bl_Endo85 against Man5GlcNAc2-Asn (e) and Man9GlcNAc2-Asn (g)
"OC[C@H]1O[C@H](O[C@@H]2C(O)O[C@H](CO)[C@@H](O)[C@@H]2O)[C@@H](O)[C@@H](O)[C@@H]1O (stereo partly drawn) [α-1,2-mannobiose]",Km,Bl_Man38C,"Bl_Man38C presents a clear preference for α-1,2-mannobiose"
"OC[C@H]1O[C@H](OC[C@H]2OC(O)[C@@H](O)[C@@H](O)[C@@H]2O)[C@@H](O)[C@@H](O)[C@@H]1O (stereo partly drawn) [α-1,6-mannobiose]",Km,Bl_Man38B,Bl_Man38B was efficient over the three disaccharides
same,Km,Bl_Man125,"Bl_Man125 was shown to be strictly an α-1,6-mannosidase"
